Experimental data as given in patent US7704995B2 (Exelixis, Inc., priority 2003, dated 2010).
Like-named read-outs stand apart in the source and are kept apart here.

Molecular target: T1, Chk1 (Homo sapiens, UniProt O14757)
T1 construct: purchased Upstate Biotechnology
T1 sequence (O14757 1-476): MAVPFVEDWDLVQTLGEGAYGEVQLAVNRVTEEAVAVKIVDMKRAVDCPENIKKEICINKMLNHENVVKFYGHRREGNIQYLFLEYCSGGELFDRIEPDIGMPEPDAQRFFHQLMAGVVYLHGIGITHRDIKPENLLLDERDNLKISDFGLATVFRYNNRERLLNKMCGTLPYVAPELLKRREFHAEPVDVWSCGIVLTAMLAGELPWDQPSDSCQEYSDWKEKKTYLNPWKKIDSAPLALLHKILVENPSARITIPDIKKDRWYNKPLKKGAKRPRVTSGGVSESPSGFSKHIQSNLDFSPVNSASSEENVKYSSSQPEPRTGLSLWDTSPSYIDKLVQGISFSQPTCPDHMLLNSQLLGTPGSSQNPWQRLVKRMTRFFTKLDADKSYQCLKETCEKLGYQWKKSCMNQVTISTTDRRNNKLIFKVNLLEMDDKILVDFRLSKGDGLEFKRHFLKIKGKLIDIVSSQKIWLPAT
Assay: Chk1 kinase assay: incorporation of γ-33P ATP into immobilized myelin basic protein
Type: biochemical
Settings: read-out: Chk1 IC50
Procedure, shortened: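 Radiometric filter-free format: Chk1 10 nM, 10 μM ATP; Chk2 20 nM, 30 μM ATP; γ-33P ATP tracer; immobilized MBP substrate; Hepes pH 7.6, 10 mM MgCl2, 1 mM DTT; 1 h RT; 1% DMSO. Scintillation counting of washed plates. IC50/Ki from curve fit.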

SMILES | IC50 [nM] | IC50 (Table 11, Chk1 only) [nM]
CNC(=O)c1nc(-c2cccc(CNCc3ccccc3N3CCCCC3)c2)cnc1N [Example 404, 3-amino-N-methyl-6-[3-({[(2-piperidin-1-ylphenyl)methyl]amino}methyl)phenyl]pyrazine-2-carboxamide] | 50 to 1000 | 
CNC(=O)c1nc(-c2cccc(C(=O)NCc3ccc(F)cc3C(F)(F)F)c2)cnc1N [Example 405, 3-amino-6-{3-[({[4-fluoro-2-(trifluoromethyl)phenyl]methyl}amino)carbonyl]phenyl}-N-methylpyrazine-2-carboxamide] | 50 to 1000 | 
CNC(=O)c1nc(-c2cccc(C(=O)NCc3ccc(C(F)(F)F)nc3)c2)cnc1N [Example 406, 3-amino-N-methyl-6-{3-[({[6-(trifluoromethyl)pyridin-3-yl]methyl}amino)carbonyl]phenyl}pyrazine-2-carboxamide] | 50 to 1000 | 
CNC(=O)c1nc(-c2cccc(-c3nc4ccccc4[nH]3)c2)cnc1N [Example 407, 3-amino-6-[3-(1H-benzimidazol-2-yl)phenyl]-N-methylpyrazine-2-carboxamide] | 50 to 1000 | 
CNC(=O)c1nc(-c2cccc(CNCc3cc(Cl)ccc3Cl)c2)cnc1N [Example 408, 3-amino-6-[3-({[(2,5-dichlorophenyl)methyl]amino}methyl)phenyl]-N-methylpyrazine-2-carboxamide] | 50 to 1000 | 
CNC(=O)c1nc(-c2cccc(CNCc3cc(Cl)cc(Cl)c3)c2)cnc1N [Example 409, 3-amino-6-[3-({[(3,5-dichlorophenyl)methyl]amino}methyl)phenyl]-N-methylpyrazine-2-carboxamide] | < 50 | 
CNC(=O)c1nc(-c2cccc(NCCc3ccccc3)c2)cnc1N [Example 410, 3-amino-N-methyl-6-{3-[(2-phenylethyl)amino]phenyl}pyrazine-2-carboxamide] | 50 to 1000 | 
CNC(=O)c1nc(-c2cncc(C(=O)NCc3ccc4c(c3)OCCO4)c2)cnc1N [Example 411, 3-amino-6-(5-{[(2,3-dihydro-1,4-benzodioxin-6-ylmethyl)amino]carbonyl}pyridin-3-yl)-N-methylpyrazine-2-carboxamide] | 50 to 1000 | 
CNC(=O)c1nc(-c2cccc(C(=O)NCCNc3ccccc3)c2)cnc1N [Example 412, 3-amino-N-methyl-6-[3-({[2-(phenylamino)ethyl]amino}carbonyl)phenyl]pyrazine-2-carboxamide] | 50 to 1000 | 
CCc1ccc(CNC(=O)c2cccc(-c3cnc(N)c(C(=O)NC)n3)c2)cc1 [Example 413, 3-amino-6-[3-({[(4-ethylphenyl)methyl]amino}carbonyl)phenyl]-N-methylpyrazine-2-carboxamide] | 50 to 1000 | 
CNC(=O)c1nc(-c2cccc(C(=O)NCc3ccc(-c4cccnc4)cc3)c2)cnc1N [Example 414, 3-amino-N-methyl-6-[3-({[(4-pyridin-3-ylphenyl)methyl]amino}carbonyl)phenyl]pyrazine-2-carboxamide] | 50 to 1000 | 
CNC(=O)c1nc(-c2cccc(CNC3Cc4ccccc4C3)c2)cnc1N [Example 415, 3-amino-6-{3-[(2,3-dihydro-1H-inden-2-ylamino)methyl]phenyl}-N-methylpyrazine-2-carboxamide] | < 50 | 
CNC(=O)c1nc(-c2cccc(CN3Cc4ccccc4C3)c2)cnc1N [Example 416, 3-amino-6-[3-(1,3-dihydro-2H-isoindol-2-ylmethyl)phenyl]-N-methylpyrazine-2-carboxamide] | 50 to 1000 | 
CNC(=O)c1nc(-c2cccc(CN[C@@H]3CCc4ccccc43)c2)cnc1N [Example 417, 3-amino-6-(3-{[(1R)-2,3-dihydro-1H-inden-1-ylamino]methyl}phenyl)-N-methylpyrazine-2-carboxamide] | 50 to 1000 | 
CNC(=O)c1nc(-c2cccc(CN[C@H]3CCc4ccccc43)c2)cnc1N [Example 418, 3-amino-6-(3-{[(1S)-2,3-dihydro-1H-inden-1-ylamino]methyl}phenyl)-N-methylpyrazine-2-carboxamide] | < 50 | 
CNC(=O)c1nc(-c2cccc(CNCc3cc(F)c(F)c(F)c3)c2)cnc1N [Example 419, 3-amino-N-methyl-6-[3-({[(3,4,5-trifluorophenyl)methyl]amino}methyl)phenyl]pyrazine-2-carboxamide] | < 50 | 
CNC(=O)c1nc(-c2cccc(CN[C@H](C)c3ccccc3)c2)cnc1N [Example 420, 3-amino-N-methyl-6-[3-({[(1R)-1-phenylethyl]amino}methyl)phenyl]pyrazine-2-carboxamide] | 50 to 1000 | 

SMILES | IC50 [nM] | IC50 (Table 11, Chk1 only) [nM]
CNC(=O)c1nc(-c2cccc(CN[C@@H]3c4ccccc4C[C@@H]3O)c2)cnc1N [Example 421, 3-amino-6-[3-({[(1R,2S)-2-hydroxy-2,3-dihydro-1H-inden-1-yl]amino}methyl)phenyl]-N-methylpyrazine-2-carboxamide] | < 50 | 
CNC(=O)c1nc(-c2cccc(CNCc3ccc(-c4cccs4)cc3)c2)cnc1N [Example 422, 3-amino-N-methyl-6-{3-[({[4-(2-thienyl)phenyl]methyl}amino)methyl]phenyl}pyrazine-2-carboxamide] | < 50 | 
CNC(=O)c1nc(-c2cccc(CNCc3cccc(-c4csnn4)c3)c2)cnc1N [Example 423, 3-amino-N-methyl-6-{3-[({[3-(1,2,3-thiadiazol-4-yl)phenyl]methyl}amino)methyl]phenyl}pyrazine-2-carboxamide] | 50 to 1000 | 
CCCc1ccc(CNC(=O)c2cccc(-c3cnc(N)c(C(=O)NC)n3)c2)cc1 [Example 424, 3-amino-N-methyl-6-[3-({[(4-propylphenyl)methyl]amino}carbonyl)phenyl]pyrazine-2-carboxamide] | 50 to 1000 | 
CNC(=O)c1nc(-c2cccc(CNCc3ccc(Cl)cc3F)c2)cnc1N [Example 425, 3-amino-6-[3-({[(4-chloro-2-fluorophenyl)methyl]amino}methyl)phenyl]-N-methylpyrazine-2-carboxamide] | 50 to 1000 | 
CNC(=O)c1nc(-c2cccc(CNCc3cccc(C(F)(F)F)c3)c2)cnc1N [Example 426, 3-amino-N-methyl-6-{3-[({[3-(trifluoromethyl)phenyl]methyl}amino)methyl]phenyl}pyrazine-2-carboxamide] | 50 to 1000 | 
CNC(=O)c1nc(-c2cccc(CN[C@@H](C)c3ccccc3)c2)cnc1N [Example 427, 3-amino-N-methyl-6-[3-({[(1S)-1-phenylethyl]amino}methyl)phenyl]pyrazine-2-carboxamide] |  | 50 to 1000
CNC(=O)c1nc(-c2cccc(CN[C@@H](CO)c3ccccc3)c2)cnc1N [Example 428, 3-amino-6-[3-({[(1R)-2-hydroxy-1-phenylethyl]amino}methyl)phenyl]-N-methylpyrazine-2-carboxamide] |  | 50 to 1000
CNC(=O)c1nc(-c2cccc(CN[C@H](C(=O)OC)c3ccccc3)c2)cnc1N [Example 429, methyl (2S)-{[(3-{5-amino-6-[(methylamino)carbonyl]pyrazin-2-yl}phenyl)methyl]amino}(phenyl)ethanoate] |  | 1000 to 10000
CNC(=O)c1nc(-c2cccc(C(=O)NNc3cc(F)ccc3F)c2)cnc1N [Example 430, 3-amino-6-(3-{[2-(2,5-difluorophenyl)hydrazino]carbonyl}phenyl)-N-methylpyrazine-2-carboxamide] |  | 50 to 1000
CNC(=O)c1nc(-c2cccc(C(=O)NNc3c(F)c(F)c(C)c(F)c3F)c2)cnc1N [Example 431, 3-amino-N-methyl-6-(3-{[2-(2,3,5,6-tetrafluoro-4-methylphenyl)hydrazino]carbonyl}phenyl)pyrazine-2-carboxamide] |  | 50 to 1000
CNC(=O)c1nc(-c2cccc(C(=O)NNc3ccccc3F)c2)cnc1N [Example 432, 3-amino-6-(3-{[2-(2-fluorophenyl)hydrazino]carbonyl}phenyl)-N-methylpyrazine-2-carboxamide] |  | 50 to 1000
CNC(=O)c1nc(-c2cccc(C(=O)NNc3ccc(F)cc3F)c2)cnc1N [Example 433, 3-amino-6-(3-{[2-(2,4-difluorophenyl)hydrazino]carbonyl}phenyl)-N-methylpyrazine-2-carboxamide] |  | 50 to 1000
CNC(=O)c1nc(-c2cccc(C(=O)NNc3c(F)c(F)cc(F)c3F)c2)cnc1N [Example 434, 3-amino-N-methyl-6-(3-{[2-(2,3,5,6-tetrafluorophenyl)hydrazino]carbonyl}phenyl)pyrazine-2-carboxamide] |  | 50 to 1000
CNC(=O)c1nc(-c2cccc(CNCc3cnc(C)cn3)c2)cnc1N [Example 435, 3-amino-N-methyl-6-[3-({[(5-methylpyrazin-2-yl)methyl]amino}methyl)phenyl]pyrazine-2-carboxamide] |  | 50 to 1000
CNC(=O)c1nc(-c2cccc(CN[C@H]3CCCc4ccccc43)c2)cnc1N [Example 436, 3-amino-N-methyl-6-(3-{[(1S)-1,2,3,4-tetrahydronaphthalen-1-ylamino]methyl}phenyl)pyrazine-2-carboxamide] |  | < 50
CNC(=O)c1nc(-c2cccc(CN[C@H]3CCN(Cc4ccccc4)C3)c2)cnc1N [Example 437, 3-amino-N-methyl-6-[3-({[(3S)-1-(phenylmethyl)pyrrolidin-3-yl]amino}methyl)phenyl]pyrazine-2-carboxamide] |  | 50 to 1000
